Experimental data as given in patent US11053218B2, “3-(1-oxoisoindolin-2-yl)piperidine-2,6-dione derivatives and uses thereof” (Novartis AG, priority 2017, dated 2021).
Structures can show the parent of a compound that is named as a salt.

Columns and labels:
IKZF2 = IKZF2 (Homo sapiens, UniProt Q96SW2+Q9UKS7); assay: Prolabel quantification of IKZF2 protein levels in 293GT cells; type: cell-based; settings: for inhibition at 10 µM: 24 h, read-out: IKZF2 % protein reduction at 10 μM, 24 h; for inhibition at 10 µM / DC50: 293GT cells; for DC50: Prolabel assay, read-out: IKZF2 EC50
Chain of IKZF2 (Q9UKS7 whole entry, the tested form may be a part): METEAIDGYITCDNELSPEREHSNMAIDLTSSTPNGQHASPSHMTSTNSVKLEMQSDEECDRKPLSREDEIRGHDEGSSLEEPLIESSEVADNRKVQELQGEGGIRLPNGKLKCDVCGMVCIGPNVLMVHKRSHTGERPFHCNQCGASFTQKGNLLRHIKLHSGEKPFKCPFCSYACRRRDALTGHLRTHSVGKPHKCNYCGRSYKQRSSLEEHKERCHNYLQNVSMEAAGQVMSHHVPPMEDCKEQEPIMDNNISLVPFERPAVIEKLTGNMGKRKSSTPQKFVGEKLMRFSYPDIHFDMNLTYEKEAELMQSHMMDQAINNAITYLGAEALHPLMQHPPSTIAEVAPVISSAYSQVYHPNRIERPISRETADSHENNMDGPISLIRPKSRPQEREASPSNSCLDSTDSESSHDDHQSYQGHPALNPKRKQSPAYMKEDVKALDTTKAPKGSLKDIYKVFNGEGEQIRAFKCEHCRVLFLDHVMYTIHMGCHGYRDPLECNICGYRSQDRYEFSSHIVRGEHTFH
Chain of IKZF2 (Q96SW2 whole entry, the tested form may be a part): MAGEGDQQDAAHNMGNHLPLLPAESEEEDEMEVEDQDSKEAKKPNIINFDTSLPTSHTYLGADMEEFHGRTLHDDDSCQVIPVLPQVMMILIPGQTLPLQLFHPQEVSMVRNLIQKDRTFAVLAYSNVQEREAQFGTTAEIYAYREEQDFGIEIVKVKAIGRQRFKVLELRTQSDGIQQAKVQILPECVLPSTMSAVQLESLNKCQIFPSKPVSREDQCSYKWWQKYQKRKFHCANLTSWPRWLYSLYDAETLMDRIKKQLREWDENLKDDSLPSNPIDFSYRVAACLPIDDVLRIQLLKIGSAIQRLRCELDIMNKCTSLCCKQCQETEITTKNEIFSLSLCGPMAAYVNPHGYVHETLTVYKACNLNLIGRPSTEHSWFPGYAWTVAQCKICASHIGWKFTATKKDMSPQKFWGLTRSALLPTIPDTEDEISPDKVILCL
Chain of IKZF2 (Q16531 whole entry partner, the tested form may be a part): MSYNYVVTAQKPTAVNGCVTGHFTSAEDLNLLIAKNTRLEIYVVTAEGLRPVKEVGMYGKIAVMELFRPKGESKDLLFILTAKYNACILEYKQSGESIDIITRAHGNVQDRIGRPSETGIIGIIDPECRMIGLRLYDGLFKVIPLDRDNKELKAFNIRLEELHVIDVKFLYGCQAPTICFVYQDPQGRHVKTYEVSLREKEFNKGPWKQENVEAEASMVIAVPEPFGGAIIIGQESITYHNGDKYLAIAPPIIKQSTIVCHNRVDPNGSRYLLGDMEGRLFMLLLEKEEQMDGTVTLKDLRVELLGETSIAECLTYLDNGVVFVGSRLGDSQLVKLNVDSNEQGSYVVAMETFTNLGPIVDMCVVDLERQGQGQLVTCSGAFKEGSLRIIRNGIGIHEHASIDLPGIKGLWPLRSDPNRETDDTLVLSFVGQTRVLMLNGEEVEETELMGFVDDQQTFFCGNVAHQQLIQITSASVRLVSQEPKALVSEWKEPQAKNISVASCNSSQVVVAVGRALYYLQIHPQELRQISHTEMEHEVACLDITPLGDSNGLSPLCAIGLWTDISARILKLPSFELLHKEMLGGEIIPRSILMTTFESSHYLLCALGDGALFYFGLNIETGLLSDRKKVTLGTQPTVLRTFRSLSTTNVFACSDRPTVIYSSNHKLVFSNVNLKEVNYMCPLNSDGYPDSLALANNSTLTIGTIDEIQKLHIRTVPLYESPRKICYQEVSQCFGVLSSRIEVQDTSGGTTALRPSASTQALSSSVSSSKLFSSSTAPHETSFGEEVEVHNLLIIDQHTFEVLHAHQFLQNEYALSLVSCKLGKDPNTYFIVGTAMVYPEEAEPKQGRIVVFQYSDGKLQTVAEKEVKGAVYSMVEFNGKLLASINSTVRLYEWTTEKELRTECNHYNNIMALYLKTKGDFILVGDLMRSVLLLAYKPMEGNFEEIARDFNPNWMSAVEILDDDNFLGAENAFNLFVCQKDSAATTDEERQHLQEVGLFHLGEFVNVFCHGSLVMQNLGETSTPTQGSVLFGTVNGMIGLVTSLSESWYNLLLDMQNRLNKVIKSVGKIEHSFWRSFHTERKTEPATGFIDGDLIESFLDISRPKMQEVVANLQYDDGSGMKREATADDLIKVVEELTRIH
Description: (§1) The Prolabel system from DiscoverX was used to develop high-throughput and quantitative assays to measure changes in IKZF1, IKZF2 and GSPT1 protein levels in response to compounds. The prolabel tag was derived from the alpha fragment of beta galactosidase and has the following protein sequence: mssnslavvlqrrdwenpgvtqlnrlaahppfaswrnseeartdrpsqqlrslnge. The complementary fragment of beta-galactosidase (from DiscoverX), is added to the prolabel tag to form an active beta galactosidase enzyme whose activity can be precisely measured. In this way, the levels of a fusion protein with the prolabel tag can be quantified in cell lysates.
(§2) Lentiviral vectors, based on the Invitrogen pLenti6.2/V5 DEST backbone, were constructed that placed the prolabel tag upstream of IKZF1, IKZF2 or GSPT1 and expressed the fusion protein from a CMV promoter.
(§3) To ensure moderate and consistent expression of the prolabel fusion proteins across all cells in the population, stable cell lines were constructed from cells expressing a single copy of the construct. Lentivirus packaged with the constructs was made using the Virapower kit from Invitrogen.
(§4) The levels of prolabel tagged fusion proteins in compound treated cell lines were measured as follows:
(§5) Day 1, Cells were diluted to 1.0×10^6 cells/ml in normal growth medium. 17.5 μL of cells were plated in each well of a solid white 384 well plate. Plates were incubated overnight in a 37° C. tissue culture incubator.
(§6) Day 2, Serial dilutions of compounds were made in 384 well plates from 10 mM stocks. 15 μL of DMSO was added to each well of a 384 well plate. In the first column 15 μL of stock compound was added. The solution was mixed and 15 μL was transferred to the next column. This was repeated until 20 two-fold dilutions were prepared. 2.5 μL of diluted compounds were transferred into 60 μL of cell culture medium in another 384 well plate, and mixed well. 2.5 μL of this mixture was added to the plated cells. The final DMSO concentration was 0.5% and the highest concentration of compound was 50 μM. Plates were incubated overnight (e.g., about 14 h, 18 h, or 24 h) in a 37° C. tissue culture incubator.
(§7) Day 3, Plates were removed from the incubator and allowed to equilibrate at rt for 30 minutes. Prolabel substrate (DiscoverX PathHunter Prolabel Detection Kit, User manual: 93-0180) was added as described by the manufacturers protocols. Plates were incubated at rt for three hours and luminescence was read using an Envision reader (Perkin Elmer) Data was analyzed and visualized using the Spotfire software package.

IKZF1 = IKZF1 (Homo sapiens, UniProt Q13422+Q96SW2); assay: Prolabel quantification of IKZF1 protein levels in 293GT cells; type: cell-based; settings: Prolabel assay, read-out: IKZF1 EC50
Chain of IKZF1 (Q13422 whole entry): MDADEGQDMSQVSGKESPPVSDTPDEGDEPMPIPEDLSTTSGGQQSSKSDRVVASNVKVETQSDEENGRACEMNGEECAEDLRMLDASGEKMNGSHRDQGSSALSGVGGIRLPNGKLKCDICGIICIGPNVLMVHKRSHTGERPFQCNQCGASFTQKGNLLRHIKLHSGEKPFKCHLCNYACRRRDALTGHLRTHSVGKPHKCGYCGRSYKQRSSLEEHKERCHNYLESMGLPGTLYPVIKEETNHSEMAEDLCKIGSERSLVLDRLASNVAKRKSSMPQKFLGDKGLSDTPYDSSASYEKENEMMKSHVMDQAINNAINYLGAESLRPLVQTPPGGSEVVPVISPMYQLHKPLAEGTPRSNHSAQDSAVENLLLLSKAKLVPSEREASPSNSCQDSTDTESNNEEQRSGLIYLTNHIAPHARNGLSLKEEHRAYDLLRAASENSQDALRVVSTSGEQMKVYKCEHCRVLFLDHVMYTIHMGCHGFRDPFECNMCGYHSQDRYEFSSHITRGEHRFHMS
Chain of IKZF1 (Q96SW2 whole entry): as the sequence (Q96SW2 whole entry, the tested form may be a part) above
Chain of IKZF1 (Q16531 whole entry partner): as the sequence (Q16531 whole entry partner, the tested form may be a part) above
Description: as §1, §2, §3, §4, §5, §6, §7

Structure (SMILES) | inhibition at 10 µM (IKZF2) | DC50 (IKZF2) | DC50 (IKZF1) | IKZF2 protein levels as compared to the control (DMSO) (IKZF2; Prolabel assay in HEK293GT cells, bar graph)
Nc1ncc(CN2CCC(c3ccc4c(c3)CN(C3CCC(=O)NC3=O)C4=O)CC2)cn1 (stereo not shown) [Compound I-122, 3-(5-(1((2-aminopyrimidin-5-yl)methyl)piperidin-4-yl)-1-oxoisoindolin-2-yl)piperidine-2,6-dione] | 70% | 76 nM | > 30000 nM | –
O=C1CCC(N2Cc3cc(C4CCN(CCC(F)(F)F)CC4)ccc3C2=O)C(=O)N1 (stereo not shown) [Compound I-179, 3-(1-oxo-5-(1-(3,3,3-trifluoropropyl)piperidin-4-yl)isoindolin-2-yl)piperidine-2,6-dione] | 40% | 67 nM | > 30000 nM | –
O=C1CCC(N2Cc3cc(C4CCN(CC5CCOCC5)CC4)ccc3C2=O)C(=O)N1 (stereo not shown) [Compound I-13, 3-(1-oxo-5-(1-((tetrahydro-2H-pyran-4-yl)methyl)piperidin-4-yl)isoindolin-2-yl)piperidine-2,6-dione] | 60% | 29 nM | > 30000 nM | –
O=C1CCC(N2Cc3cc(C4CCN(Cc5ccon5)CC4)ccc3C2=O)C(=O)N1 (stereo not shown) [Compound I-246, 3-(5-(1-(isoxazol-3-ylmethyl)piperidin-4-yl)-1-oxoisoindolin-2-yl)piperidine-2,6-dione] | 40% | 12 nM | > 50000 nM | –
O=C1CCC(N2Cc3cc(C4CCN(Cc5ccns5)CC4)ccc3C2=O)C(=O)N1 (stereo not shown) [Compound I-290, 3-(5-(1-(isothiazol-5-ylmethyl)piperidin-4-yl)-1-oxoisoindolin-2-yl)piperidine-2,6-dione] | 60% | 490 nM | > 30000 nM | –
O=C1CCC(N2Cc3cc(C4CCN(CC5CCC5)CC4)ccc3C2=O)C(=O)N1 (stereo not shown) [Compound I-5, 3-(5-(1-(cyclobutylmethyl)piperidin-4-yl)-1-oxoisoindolin-2-yl)piperidine-2,6-dione] | 60% | 27 nM | > 30000 nM | –
O=C1CCC(N2Cc3cc(C4CCN(Cc5ncon5)CC4)ccc3C2=O)C(=O)N1 (stereo not shown) [Compound I-204, 3-(5-(1-((1,2,4-oxadiazol-3-yl)methyl)piperidin-4-yl)-1-oxoisoindolin-2-yl)piperidine-2,6-dione] | 0% | > 50000 nM | > 50000 nM | –
O=C1CCC(N2Cc3cc(C4CCN(C(c5ccccc5)C(F)(F)F)CC4)ccc3C2=O)C(=O)N1 (stereo not shown) [Compound I-224, 3-(1-oxo-5-(1-(2,2,2-trifluoro-1-phenylethyl)piperidin-4-yl)isoindolin-2-yl)piperidine-2,6-dione HC(O)OH salt] | 0% | > 50000 nM | > 50000 nM | –
CC1(C)CN(Cc2ccccc2)CCC1c1ccc2c(c1)CN(C1CCC(=O)NC1=O)C2=O (stereo not shown) [Compound I-185, 3-(5-(1-benzyl-3,3-dimethylpiperidin-4-yl)-1-oxoisoindolin-2-yl)piperidine-2,6-dione] | 20% | > 30000 nM | > 30000 nM | –
O=C1CCC(N2Cc3cc(C4CCN(Cc5cccc(S(=O)(=O)N6CCOCC6)c5)CC4)ccc3C2=O)C(=O)N1 (stereo not shown) [Compound I-236, 3-(5-(1-(3-(morpholinosulfonyl)benzyl)piperidin-4-yl)-1-oxoisoindolin-2-yl)piperidine-2,6-dione] | 80% | 3 nM | > 25000 nM | decreased
O=C1CCC(N2Cc3cc(C4CCN(Cc5cnc(Cl)s5)CC4)ccc3C2=O)C(=O)N1 (stereo not shown) [Compound I-10, 3-(5-(1-((2-chlorothiazol-5-yl)methyl)piperidin-4-yl)-1-oxoisoindolin-2-yl)piperidine-2,6-dione] | 60% | 85 nM | > 30000 nM | –

Results, then the compound that gave them:

inhibition at 10 µM (IKZF2) | DC50 (IKZF2) | DC50 (IKZF1) | IKZF2 protein levels as compared to the control (DMSO) (IKZF2; Prolabel assay in HEK293GT cells, bar graph) | Structure (SMILES)
70% | 58 nM | > 30000 nM | – | COc1ccccc1CN1CCC(c2ccc3c(c2)CN(C2CCC(=O)NC2=O)C3=O)CC1 (stereo not shown) [Compound I-67, 3-(5-(1-(2-methoxybenzyl)piperidin-4-yl)-1-oxoisoindolin-2-yl)piperidine-2,6-dione]
70% | 36 nM | > 30000 nM | – | O=C1CCC(N2Cc3cc(C4CCN(Cc5cc(F)ccc5F)CC4)ccc3C2=O)C(=O)N1 (stereo not shown) [Compound I-29, 3-(5-(1-(2,5-difluorobenzyl)piperidin-4-yl)-1-oxoisoindolin-2-yl)piperidine-2,6-dione]
65% | 14 nM | > 30000 nM | – | O=C1CCC(N2Cc3cc(C4CCN(CCc5ccccc5)CC4)ccc3C2=O)C(=O)N1 (stereo not shown) [Compound I-14, 3-(1-oxo-5-(1-phenethylpiperidin-4-yl)isoindolin-2-yl)piperidine-2,6-dione]
35% | 67 nM | > 30000 nM | – | O=C1CCC(N2Cc3cc(C4CCN(Cc5nc6ccccc6s5)CC4)ccc3C2=O)C(=O)N1 (stereo not shown) [Compound I-200, 3-(5-(1-(benzo[d]thiazol-2-ylmethyl)piperidin-4-yl)-1-oxoisoindolin-2-yl)piperidine-2,6-dione]
60% | 5 nM | > 30000 nM | – | O=C1CCC(N2Cc3cc(C4CCN(Cc5ccccc5C5CC5)CC4)ccc3C2=O)C(=O)N1 (stereo not shown) [Compound I-104, 3-(5-(1-(2-cyclopropylbenzyl)piperidin-4-yl)-1-oxoisoindolin-2-yl)piperidine-2,6-dione]
75% | 69 nM | > 30000 nM | – | Nc1ccc(CN2CCC(c3ccc4c(c3)CN(C3CCC(=O)NC3=O)C4=O)CC2)cn1 (stereo not shown) [Compound I-123, 3-(5-(1-((6-aminopyridin-3-yl)methyl)piperidin-4-yl)-1-oxoisoindolin-2-yl)piperidine-2,6-dione]
50% | 10 nM | > 25000 nM | – | O=C1CCC(N2Cc3cc(C4CCN(Cc5nccc6ccccc56)CC4)ccc3C2=O)C(=O)N1 (stereo not shown) [Compound I-226, 3-(5-(1-(isoquinolin-1-ylmethyl)piperidin-4-yl)-1-oxoisoindolin-2-yl)piperidine-2,6-dione]
80% | 46 nM | > 30000 nM | – | O=C1CCC(N2Cc3cc(C4CCN(Cc5ccc(CO)cc5)CC4)ccc3C2=O)C(=O)N1 (stereo not shown) [Compound I-32, 3-(5-(1-(4-(hydroxymethyl)benzyl)piperidin-4-yl)-1-oxoisoindolin-2-yl)piperidine-2,6-dione]
40% | 8 nM | > 30000 nM | – | N#Cc1cccc(CN2CCC(c3ccc4c(c3)CN(C3CCC(=O)NC3=O)C4=O)CC2)n1 (stereo not shown) [Compound I-217, 6-((4-(2-(2,6-dioxopiperidin-3-yl)-1-oxoisoindolin-5-yl)piperidin-1-yl)methyl)picolinonitrile]
55% | 2100 nM | > 30000 nM | – | O=C1CCC(N2Cc3cc(C4CCN(Cc5cccc(C(=O)O)c5)CC4)ccc3C2=O)C(=O)N1 (stereo not shown) [Compound I-74, 3-((4-(2-(2,6-dioxopiperidin-3-yl)-1-oxoisoindolin-5-yl)piperidin-1-yl)methyl)benzoic acid]
20% | > 30000 nM | > 30000 nM | – | O=C1CCC(N2Cc3cc(C4CCN(Cc5ccccc5)C4)ccc3C2=O)C(=O)N1 (stereo not shown) [Compound I-260, 3-(5-(1-benzylpyrrolidin-3-yl)-1-oxoisoindolin-2-yl)piperidine-2,6-dione HC(O)OH Salt]
